Results taken from patent US12138256B2, “Treatment of cardiopulmonary disorders” (Bayer Aktiengesellschaft, priority 2021, dated 2024).

Tested on: sGC (cGMP)
Assay: Phase I, healthy male subjects, 14 days inhalation: cGMP concentration (C-4.2)
Type: in vivo, human
Conditions: for cGMP change from baseline / cGMP concentration, mean +/− SD: 1000 μg
Procedure: Healthy white male subjects, aged 18 to 45 years and with a body mass index (BMI) above/equal 18.5 and below/equal 29.9 kg/m2 were treated in a clinical pharmacological phase I study for 14 days with inhaled once daily doses of 1000 μg (nominal dose) or Placebo of dry powder of example 4. The subjects inhaled the drug powder from capsules (see under D-1, e.g. tables 17 and 20) inserted into a handheld inhalation device by one deep inhalative breath into the deep parts of the lung. The intended substantial reduction of increased blood pressure in the central pulmonary blood vessels cannot be evaluated in subjects without pathophysiological impairment of lung function. As surrogate for drug concentration in the lung, plasma concentrations over time have been analysed. […] Drug activity/target engagement in healthy men was controlled in the healthy subjects by analysing blood samples for cGMP. Results are shown in as mean in table C4.2.1 and change to baseline in FIG. 76 and table C4.2.2.

[1] = −0 D 09 H 00 M (pretreatment day)
[2] = −0 D 12 H 00 M (pretreatment day)
[3] = −0 D 16 H 00 M (pretreatment day)
[4] = −0 D 18 H 00 M (pretreatment day)
[5] = −0 D 20 H 00 M (pretreatment day)
[6] = −0 D 22 H 00 M (pretreatment day)

O=C(O)c1ccc(CCN(CCc2ccccc2OCc2ccc(-c3ccc(C(F)(F)F)cc3)cc2Cl)[C@H]2CCCc3nc(C(=O)O)ccc32)cc1 [example 4, (5S)-{[2-(4-Carboxyphenyl)ethyl][2-(2-{[3-chloro-4′-(trifluoromethyl)biphenyl-4-yl]methoxy}phenyl)-ethyl]amino}-5,6,7,8-tetrahydroquinoline-2-carboxylic acid]
time until maximum cGMP values were reached (1000 μg once daily): 7 days
time until steady state of cGMP concentration (1000 μg once daily): ≤ 11 days
cGMP change from baseline (0 D 02 H 00 M): 4840 pM
cGMP concentration, mean +/− SD (0 D 02 H 00 M): 9170 pM
cGMP change from baseline (0 D 04 H 00 M): 7290 pM
cGMP concentration, mean +/− SD (0 D 04 H 00 M): 11600 pM
cGMP change from baseline (0 D 06 H 00 M): 9950 pM
cGMP concentration, mean +/− SD (0 D 06 H 00 M): 14300 pM
cGMP change from baseline (0 D 08 H 00 M): 10600 pM
cGMP concentration, mean +/− SD (0 D 08 H 00 M): 14900 pM
cGMP change from baseline (0 D 12 H 00 M): 7530 pM
cGMP concentration, mean +/− SD (0 D 12 H 00 M): 11800 pM
cGMP change from baseline (0 D 15 H 00 M): 6740 pM
cGMP concentration, mean +/− SD (0 D 15 H 00 M): 11100 pM
cGMP change from baseline (1 D 00 H 00 M): 2980 pM
cGMP concentration, mean +/− SD (1 D 00 H 00 M): 7310 pM
cGMP change from baseline (2 D 00 H 00 M): 4550 pM
cGMP concentration, mean +/− SD (2 D 00 H 00 M): 8880 pM
cGMP change from baseline (2 D 03 H 00 M): 13000 pM
cGMP concentration, mean +/− SD (2 D 03 H 00 M): 17300 pM
cGMP change from baseline (2 D 08 H 00 M): 16400 pM
cGMP concentration, mean +/− SD (2 D 08 H 00 M): 20800 pM
cGMP change from baseline (2 D 12 H 00 M): 12600 pM
cGMP concentration, mean +/− SD (2 D 12 H 00 M): 16900 pM
cGMP change from baseline (3 D 00 H 00 M): 5160 pM
cGMP concentration, mean +/− SD (3 D 00 H 00 M): 9490 pM
cGMP change from baseline (4 D 00 H 00 M): 6360 pM
cGMP concentration, mean +/− SD (4 D 00 H 00 M): 10700 pM
cGMP change from baseline (5 D 00 H 00 M): 5920 pM
cGMP concentration, mean +/− SD (5 D 00 H 00 M): 10300 pM
cGMP change from baseline (6 D 00 H 00 M): 5090 pM
cGMP concentration, mean +/− SD (6 D 00 H 00 M): 9420 pM
cGMP change from baseline (6 D 03 H 00 M): 13400 pM
cGMP concentration, mean +/− SD (6 D 03 H 00 M): 17700 pM
cGMP change from baseline (6 D 08 H 00 M): 20100 pM
cGMP concentration, mean +/− SD (6 D 08 H 00 M): 24500 pM
cGMP change from baseline (6 D 12 H 00 M): 13900 pM
cGMP concentration, mean +/− SD (6 D 12 H 00 M): 18200 pM
cGMP change from baseline (7 D 00 H 00 M): 6180 pM
cGMP concentration, mean +/− SD (7 D 00 H 00 M): 10500 pM
cGMP change from baseline (8 D 00 H 00 M): 6200 pM
cGMP concentration, mean +/− SD (8 D 00 H 00 M): 10500 pM
cGMP change from baseline (9 D 00 H 00 M): 6580 pM
cGMP concentration, mean +/− SD (9 D 00 H 00 M): 10900 pM
cGMP change from baseline (10 D 00 H 00 M): 6450 pM
cGMP concentration, mean +/− SD (10 D 00 H 00 M): 10800 pM
cGMP change from baseline (10 D 03 H 00 M): 12700 pM
cGMP concentration, mean +/− SD (10 D 03 H 00 M): 17100 pM
cGMP change from baseline (10 D 08 H 00 M): 17500 pM
cGMP concentration, mean +/− SD (10 D 08 H 00 M): 21900 pM
cGMP change from baseline (10 D 12 H 00 M): 13000 pM
cGMP concentration, mean +/− SD (10 D 12 H 00 M): 17300 pM
cGMP change from baseline (11 D 00 H 00 M): 6940 pM
cGMP concentration, mean +/− SD (11 D 00 H 00 M): 11300 pM
cGMP change from baseline (12 D 00 H 00 M): 8060 pM
cGMP concentration, mean +/− SD (12 D 00 H 00 M): 12400 pM
cGMP change from baseline (12 D 22 H 00 M): 6950 pM
cGMP concentration, mean +/− SD (12 D 22 H 00 M): 11300 pM
cGMP change from baseline (13 D 02 H 00 M): 9120 pM
cGMP concentration, mean +/− SD (13 D 02 H 00 M): 13400 pM
cGMP change from baseline (13 D 04 H 00 M): 12900 pM
cGMP concentration, mean +/− SD (13 D 04 H 00 M): 17300 pM
cGMP change from baseline (13 D 06 H 00 M): 17000 pM
cGMP concentration, mean +/− SD (13 D 06 H 00 M): 21400 pM
cGMP change from baseline (13 D 08 H 00 M): 17700 pM
cGMP concentration, mean +/− SD (13 D 08 H 00 M): 22000 pM
cGMP change from baseline (13 D 12 H 00 M): 12900 pM
cGMP concentration, mean +/− SD (13 D 12 H 00 M): 17200 pM
cGMP change from baseline (13 D 15 H 00 M): 12100 pM
cGMP concentration, mean +/− SD (13 D 15 H 00 M): 16400 pM
cGMP change from baseline (14 D 00 H 00 M): 5410 pM
cGMP concentration, mean +/− SD (14 D 00 H 00 M): 9740 pM
cGMP change from baseline (15 D 00 H 00 M): 2520 pM
cGMP concentration, mean +/− SD (15 D 00 H 00 M): 6850 pM
cGMP change from baseline (15 D 12 H 00 M): 3040 pM
cGMP concentration, mean +/− SD (15 D 12 H 00 M): 7370 pM
cGMP change from baseline (16 D 00 H 00 M): 2000 pM
cGMP concentration, mean +/− SD (16 D 00 H 00 M): 6330 pM
cGMP change from baseline (16 D 12 H 00 M): 2410 pM
cGMP concentration, mean +/− SD (16 D 12 H 00 M): 6740 pM
cGMP change from baseline (17 D 00 H 00 M): 400 pM
cGMP concentration, mean +/− SD (17 D 00 H 00 M): 4730 pM
cGMP change from baseline (20 D 00 H 00 M): 1220 pM
cGMP concentration, mean +/− SD (20 D 00 H 00 M): 5520 pM
cGMP change from baseline (FOLLOW-UP): 1520 pM
cGMP concentration, mean +/− SD (FOLLOW-UP): 5850 pM
cGMP concentration, mean +/− SD (−0 D 02 H 00 M (prior to first inhalation)): 4330 pM
cGMP change from baseline [1]: 224 pM
cGMP concentration, mean +/− SD [1]: 5490 pM
cGMP change from baseline [2]: 306 pM
cGMP concentration, mean +/− SD [2]: 5570 pM
cGMP change from baseline [3]: 676 pM
cGMP concentration, mean +/− SD [3]: 5940 pM
cGMP change from baseline [4]: −252.9 +/− 1345.9
cGMP concentration, mean +/− SD [4]: 5010 pM
cGMP change from baseline [5]: −952.9 +/− 1984.7
cGMP concentration, mean +/− SD [5]: 4310 pM
cGMP change from baseline [6]: −100.0 +/− 1403.1
cGMP concentration, mean +/− SD [6]: 5160 pM
cGMP concentration, mean +/− SD (−1 D 02 H 00 M (pretreatment day)): 5260 pM
